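Protocol summary: plate cells (96-well), add compound at 5 concentrations, incubate 48 h, interpolate endpoints linearly. Abbreviation: GI50, concentration required for 50% inhibition of growth. TGI marks complete inhibition of growth.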
What was measured:
Assay in all cases: NCI-60 cell line screen, 48 h
[1] = test system: K-562 leukemia
[2] = test system: MALME-3M melanoma
[3] = test system: U251 CNS
[4] = test system: MDA-MB-435
[5] = test system: HT29 colon
[6] = test system: HCC-2998 colon
[7] = test system: NCI-H226 lung
[8] = test system: M14 melanoma
[9] = test system: BT-549 breast
[10] = test system: UACC-62 melanoma

Structure (SMILES)	GI50 [1]	TGI [1]	GI50 [2]	TGI [2]	GI50 [3]	TGI [3]	GI50 [4]	TGI [4]	GI50 [5]	TGI [5]	GI50 [6]	TGI [6]	GI50 [7]	TGI [7]	GI50 [8]	TGI [8]	GI50 [9]	TGI [9]	GI50 [10]	TGI [10]
O=C1/C(=C/c2ccccc2)CN(CCC(=O)N2C/C(=C\c3ccccc3)C(=O)/C(=C/c3ccccc3)C2)C/C1=C\c1ccccc1	0.494 µM	> 100 µM	22.3 µM	64.3 µM	1.29 µM	11.3 µM	0.683 µM	5.68 µM	0.635 µM	> 55.9 µM	1.71 µM	8 µM	12.7 µM	41.3 µM	4.13 µM	> 77.9 µM	9.91 µM	36.4 µM	7.19 µM	33.9 µM
N#C/C(=C/C=C/c1ccccc1)S(=O)c1ccccc1 (stereo not drawn)	0.32 µM	90.8 µM	0.796 µM	2.5 µM	0.483 µM	1.7 µM	0.485 µM	1.83 µM	0.366 µM	2.17 µM	0.342 µM	1.18 µM	1.92 µM	5.88 µM	0.655 µM	2.7 µM	0.712 µM	2.35 µM	0.435 µM	1.89 µM
CN(C)CCCN=c1cc2c(=O)n(CCCN(C)C)c(=O)c3c(NCCCN(C)C)cc4c(O)n(CCCN(C)C)c(=O)c1c4c3-2	2.13 µM	> 100 µM	1.27 µM	5.59 µM	0.418 µM	11 µM	3.41 µM	14.9 µM	0.573 µM	3.58 µM	5.68 µM	22.9 µM	0.258 µM	4.12 µM	5.87 µM	19.7 µM	11.2 µM	31.4 µM	1.75 µM	4.86 µM
ClC1(c2ccccc2)c2ccc(Br)cc2-c2cc(Br)ccc21		> 100 µM		32.5 µM		31.6 µM		27.4 µM		26 µM		36.2 µM		36.4 µM		28.7 µM		37.7 µM		
N/C(=N\c1nc2ccccc2s1)NC(=O)Nc1ccccc1Cl	0.0366 µM	> 43.5 µM	0.667 µM	13.2 µM	0.122 µM	5.57 µM	0.0269 µM	0.0868 µM	0.105 µM	6.31 µM	0.348 µM	10.9 µM	0.429 µM	19.2 µM	0.0509 µM	2.14 µM	0.421 µM	4.86 µM	0.125 µM	> 78.9 µM
CC(C)(C)N1CC(OC(N)=O)C1	> 100 µM	> 100 µM	> 100 µM	> 100 µM	> 100 µM	> 100 µM	> 100 µM	> 100 µM	> 100 µM	> 100 µM	> 100 µM	> 100 µM	> 100 µM	> 100 µM	> 100 µM	> 100 µM	> 100 µM	> 100 µM	> 100 µM	> 100 µM
CNC(=O)c1cncc(/C=C/c2c(C)cccc2C)c1	> 22.3 µM	> 25 µM	16 µM	> 25 µM	> 25 µM	> 25 µM	> 25 µM	> 25 µM	16.2 µM	> 25 µM	> 25 µM	> 25 µM	> 25 µM	> 25 µM	> 25 µM	> 25 µM	> 25 µM	> 25 µM	> 22.5 µM	> 25 µM
C#Cc1cccc(Nc2ncnc3ccc(-c4cnc(Cl)c(NS(C)(=O)=O)c4)cc23)c1	0.682 µM	> 100 µM	0.0924 µM	0.862 µM	0.284 µM	2.68 µM	0.383 µM	2.34 µM	0.404 µM		0.416 µM	1.78 µM	0.564 µM	4.3 µM	0.368 µM	2.41 µM	0.183 µM	1.41 µM	0.149 µM	1.07 µM
COc1ccccc1N1CCN(C(=O)c2ccc(NS(=O)(=O)c3cccc4cccnc34)cc2)CC1	> 100 µM	> 100 µM	> 100 µM	> 100 µM	78.2 µM	> 100 µM	> 100 µM	> 100 µM	> 100 µM	> 100 µM	> 100 µM	> 100 µM	> 33.2 µM	> 100 µM	> 100 µM	> 100 µM	> 76.5 µM	> 100 µM	> 100 µM	> 100 µM
CC1(C)CCC2(C(=O)O)CC[C@]3(C)C(=CCC4C5(C)CC[C@H](OC6OC(C(=O)O)C(O)C(OC7OC(CO)C(O)C(O)C7O)C6OC6OC(CO)C(O)C(O)C6O)C(C)(C)C5CCC43C)C2C1 (stereo partly drawn)	81.1 µM	> 100 µM			32.3 µM	89.4 µM	> 100 µM	> 100 µM	40.9 µM	> 100 µM			> 100 µM	> 100 µM	79.9 µM	> 100 µM	> 100 µM	> 100 µM	23 µM	50.7 µM
COc1ccc(-c2csc(NC(=O)N3CCN(c4cc5c(cc4F)c(=O)c(C(=O)O)cn5C4CC4)CC3)n2)cc1	2.71 µM	14.9 µM			0.66 µM	16.8 µM	2.54 µM	> 100 µM			3.83 µM	> 100 µM	2.95 µM	> 100 µM	2.31 µM	> 100 µM	0.616 µM	6.64 µM		
O=C(O[C@H]1CN[C@H](C#Cc2cc3ncnc(Nc4ccc(OCc5cccc(F)c5)c(Cl)c4)c3s2)C1)N1CCOCC1	11.1 µM	> 25 µM	4.95 µM	10.2 µM	8.7 µM	> 25 µM	9.85 µM	> 25 µM	5.7 µM	11.4 µM	5.01 µM	12.6 µM	5.32 µM	12 µM	12.6 µM	> 25 µM	4.28 µM	8.69 µM	13.4 µM	> 25 µM

Source: PubChem BioAssay (NCI)
